This is an account of results in US20070031342A1, “Sustained release microparticles for pulmonary delivery” (Nektar Therapeutics, priority 2005, published 2007).

Like-named read-outs stand apart in the source and are kept apart here.

The conditions of series [1]: cited from earlier work.
A short description of series [2]: Rabbit aerosol inhalation model, serum sCT concentration after intratracheal aerosol administration. The format is in vivo. As to conditions: single intratracheal aerosol administration. On the procedure: The in vivo dissolution properties of the composition were determined in a rabbit aerosol inhalation model. In this test, the serum sCT concentration was measured for increasing time following intratracheal aerosol administration for sustained release microparticles comprising 20% w/w encapsulated sCT and compared to the concentration of a control sample comprising neat 20% w/w sCT powder. […] In contrast, the absorption of the encapsulated sCT of the microparticles reaches its maximum blood levels at 4 hours post administration and are sustained to at least 24 hours. […] Accordingly, the encapsulated sCT microparticles prepared according to the above method provide improved sustain release results over the unencapsulated sCT, by increasing the duration over which the drug is released to provide a more controlled dose of the sCT drug.

Turning to `CCCC1O[C@@H]2C[C@H]3[C@@H]4CCC5=CC(=O)C=C[C@]5(C)[C@H]4[C@@H](O)C[C@]3(C)[C@]2(C(=O)CO)O1` (stereo partly drawn) [budesonide], the tmax in series [1] (following inhalation delivery, Pulmicort Turbuhaler) was around 30 min. Besides, in series [1] (inhaled), the absolute bioavailability is 39%. Further, the bioavailability in series [1] (nasal) is given as 21±6%; in series [1] (oral), 10.7±4.3%.
As for `CC(C)C[C@H](NC(=O)[C@H](CCCCN)NC(=O)CNC(=O)[C@H](CC(C)C)NC(=O)[C@@H](NC(=O)[C@@H]1CSSC[C@H](N)C(=O)N[C@@H](CO)C(=O)N[C@@H](CC(N)=O)C(=O)N[C@@H](CC(C)C)C(=O)N[C@@H](CO)C(=O)N[C@@H]([C@@H](C)O)C(=O)N1)C(C)C)C(=O)N[C@@H](CO)C(=O)N[C@@H](CCC(N)=O)C(=O)N[C@@H](CCC(=O)O)C(=O)N[C@@H](CC(C)C)C(=O)N[C@@H](Cc1c[nH]cn1)C(=O)N[C@@H](CCCCN)C(=O)N[C@@H](CC(C)C)C(=O)N[C@@H](CCC(N)=O)C(=O)N[C@H](C(=O)N[C@@H](Cc1ccc(O)cc1)C(=O)N1CCC[C@H]1C(=O)N[C@@H](CCCNC(=N)N)C(=O)N[C@H](C(=O)N[C@@H](CC(N)=O)C(=O)N[C@H](C(=O)NCC(=O)N[C@@H](CO)C(=O)NCC(=O)N[C@H](C(=O)N1CCC[C@H]1C(N)=O)[C@@H](C)O)[C@@H](C)O)[C@@H](C)O)[C@@H](C)O` [neat salmon calcitonin], the tmax in series [2] (serum, inhaled or intranasal, read-out: time to maximum concentration in the blood (converted)) was 15 min. For the same compound, the “time after which blood levels return to baseline” value in series [2] is 3 h.

What is called bioavailability is the share of a dose that reaches the circulation, judged against a reference dose that is usually intravenous.
